Source: publication PMC11964630 (Journal of Pharmaceutical Analysis, 2024)

Tested on: U87MG xenograft-bearing NOD/SCID mice
Assay: Ex vivo biodistribution in U87MG xenograft model
Parameters: species or system mouse
Settings: single i.v. dose of atezolizumab 20 mg/kg, 24 h before [^18F]AlF-NOTA-PCP2

For “atezolizumab: anti-PD-L1 antibody used for blockade, 20 mg/kg”, the “decrease in tracer uptake in U87MG tumors” value was 92.2%.
